Reference: patent publication US11180509B2, “Thiazolidone spiro pyrimidine trione compound, preparation method therefor and uses thereof” (SHANGHAI INSTITUTE OF MATERIA MEDICA, CHINESE ACADEMY OF …, priority 2017, dated 2021)
Values after ≈ are worked out from the molar mass of the structure shown. Where two headings read alike, the source gives them in different places.

Assays:
[1] = test system: methicillin-resistant Staphylococcus aureus or MRSA; test: In vitro antibacterial activity, MIC by micro broth dilution; assay type: cell-based; conditions: read-out: MIC MRSA
Description: (§1) The following strains isolated in clinic were used in antibacterial activity screening in vitro: five strains of methicillin-resistant Staphylococcus aureus or MRSA, five strains of methicillin-sensitive Staphylococcus aureus or MSSA, five strains of methicillin-resistant Staphylococcus epidermidis or MRSE, five strains of methicillin-sensitive Staphylococcus epidermidis or MSSE, three strains of penicillin-resistant Streptococcus pneumoniae or PRSP, and three strains of Streptococcus pyogenes.
(§2) The above strains were clinically isolated pathogenic bacteria collected in Sichuan and Beijing in December 2015. They were identified by the collection unit via a VITEK-60 automatic microbiological identification instrument, and then re-identified by conventional methods in the laboratory. Before the experiment, each strain was purified by a single colony on an agar plate, and the cells freshly cultured at 37° C. overnight were appropriately diluted for the experiment. Quality control strain was Staphylococcus aureus ATCC25923 purchased from the Clinical Testing Center of the Ministry of Health of the People's Republic of China.
(§3) Medium: MH (Mueller-Hinton, hydrolyzed casein) broth (OXOID);
(§4) Culture condition: Incubate at 35-37° C. for 16-18 h.
(§5) The MIC value of each test sample for the tested strain was determined by micro broth dilution method recommended by Performance Standards for Antimicrobial Susceptibility Testing (Twenty-Third Informational Supplement; M02-A11, M07-A9 and M11-A8, 2013) of American Clinical and Laboratory Standards Institute (CLSI).
(§6) After diluting each test sample to different concentrations in MH broth, 100 μl of each sample solution at different concentrations was pipetted into a sterilized 96-well polystyrene plate. In the first to twelfth wells, the drug solution was added, and the final drug concentrations in each well were 64, 32, 16, 8, 4, 2, 1, 0.5, 0.25, 0.125, 0.06, and 0.03 mg/L. The well without drug and without bacteria was set as blank control well. The well with bacteria and without drug was set as a bacterial growth control well.
(§7) The test bacterial solution was adjusted with physiological saline to a bacterial suspension equivalent to 0.5 Maisson turbidity standard, and diluted 1:100 with MH broth. The drug solution was added so that the final concentration of the bacterial solution was about 10^4 CFU/ml; then 100 μl of bacterial solution was pipetted into the above wells (the total volume in each well was 200 μl). The plate was sealed and placed in a 35-37° C. incubator for 18-20 h, and then the results were determined. […] When Streptococcus pneumoniae was tested, sterile defibrillated sheep blood was added into the Colombian broth culture medium at a final concentration of 5% and cultivation was conducted in a 5% CO2 and 35-37° C. incubator for 18-20 hours.

[2] = test system: methicillin-resistant Staphylococcus epidermidis or MRSE; test: as above; assay type: cell-based; conditions: read-out: MIC MRSE
Description: as §1, §2, §3, §4, §5, §6, §7

[3] = test system: methicillin-sensitive Staphylococcus aureus or MSSA; test: as above; assay type: cell-based; conditions: read-out: MIC MSSA
Description: as §1, §2, §3, §4, §5, §6, §7

[4] = test system: methicillin-sensitive Staphylococcus epidermidis or MSSE; test: as above; assay type: cell-based; conditions: read-out: MIC MSSE
Description: as §1, §2, §3, §4, §5, §6, §7

[5] = test system: Streptococcus pyogenes; test: as above; assay type: cell-based; conditions: read-out: MIC Spy
Description: as §1, §2, §3, §4, §5, §6, §7

[6] = test system: penicillin-resistant Streptococcus pneumoniae or PRSP; test: as above; assay type: cell-based; conditions: read-out: MIC PRSP
Description: as §1, §2, §3, §4, §5, §6, §7

[7] = test system: MRSA, MSSA, MRSE, MSSE, PRSP, and Spy; test: In vitro antibacterial activity over the whole strain panel, compared with AZD0914; assay type: cell-based; conditions: against MRSA
Description: as §1, §2, §5, §6, §7

[8] = In vivo pharmacokinetics test in mice (oral); design: species or system CD-1 mice; conditions: PO 10.0 mg/kg; for AUC0→t relative to AZD0914 / Cmax relative to AZD0914: multiple of the AZD0914 value
Experimental: Healthy female CD-1 mice were randomly divided into five groups and each group comprised three mice. The tested compound was administered orally.
0.030 mL of blood was taken from the orbit of each animal each time and anticoagulated with EDTAK2. The collection time was as follows. PO group: 15 m, 30 mi, 1 h, 2 h, 4 h, 6 h, 8 h, and 24 h after administration of the test compound. The collected blood samples were placed on ice and centrifuged within 30 minutes to separate the plasma (centrifugation conditions: 5000 rpm, 10 minutes, room temperature). The samples were stored at −80° C. before analysis.

[9] = test system: Staphylococcus aureus MRSA15-3; test: In vitro antibacterial activity against the in vivo test strain (MIC); assay type: cell-based; conditions: MRSA153
Experimental: as §5, §6
The test bacterial solution was adjusted with physiological saline to a bacterial suspension equivalent to 0.5 Maisson turbidity standard, and diluted 1:100 with MH broth. The drug solution was added so that the final concentration of the bacterial solution was about 10^4 CFU/ml; then 100 μl of bacterial solution was pipetted into the above wells (the total volume in each well was 200 μl). The plate was sealed and placed in a 35-37° C. incubator for 18-20 h, and then the results were determined. […]

[10] = test system: S. aureus MRSA15-3 infected mice; test: In vivo protection test, systemic infection model (ED50); design: species or system Kunming mice; conditions: Staphylococcus aureus
[11] = female, CD-1, mouse, plasma, read-out: Tmax

SMILES	MIC [1] [µg/mL]	MIC [2] [µg/mL]	MIC [3] [µg/mL]	MIC [4] [µg/mL]	MIC [5] [µg/mL]	MIC [6] [µg/mL]	in vitro antibacterial activity relative to AZD0914 [7]	AUC0→t relative to AZD0914 [8] [times)]	Cmax relative to AZD0914 [8] [times)]	AUC0→t ([8]; plasma) [ng·h/mL]	Cmax ([8]; plasma) [ng/mL]	MRT ([8]; plasma) [h]	t1/2 ([8]; plasma) [h]	Tmax [8, 11] [min]	also measured
C=C1CN(c2noc3c(F)c4c(cc23)CC2(C(=O)NC(=O)NC2=O)[C@H]2[C@H](C)O[C@H](C)CN42)C(=O)S1 [Compound 25, (2R,4S,4aS)-11-fluoro-2,4-dimethyl-8-(5-methylene-2-oxothiazol-3-yl)-1,2,4,4a-tetrahydro-2′H,6H-spiro[isoxazole[4,5-g][1,4]oxazine[4,3-a]quinoline-5,5′-pyrimidine]-2′,4′,6′(1′H, 3′H)-trione]	< 0.03	< 0.03	< 0.03	< 0.03	< 0.03	< 0.03	about 8 times								
COC[C@H]1CN(c2noc3c(F)c4c(cc23)CC2(C(=O)NC(=O)NC2=O)[C@H]2[C@H](C)O[C@H](C)CN42)C(=O)S1 [Compound 8, (2R,4S,4aS)-11-fluoro-8-((R)-5-(methoxymethyl)-2-oxothiazolin-3-yl)-2,4-dimethyl-1,2,4,4a-tetrahydro-2′H,6H-spiro[isoxazole[4,5-g][1,4]oxazine[4,3-a]quinoline-5,5′-pyrimidine]-2′,4′,6′(1′H,3′H)-trione]	0.03 to 0.5 (≈ 0.0562 to 0.937 µM)	0.03 (≈ 0.0562 µM)	0.03 to 0.25 (≈ 0.0562 to 0.469 µM)	0.03 to 0.125 (≈ 0.0562 to 0.234 µM)	0.25 to 0.5 (≈ 0.469 to 0.937 µM)	0.03 to 0.5 (≈ 0.0562 to 0.937 µM)		~11	~11	8240 ± 940	2051 ± 88	3.72 ± 0.76	2.51 ± 0.08	35 ± 22.9	
C[C@@H]1CN2c3c(cc4c(N5C[C@@H](C)SC5=O)noc4c3F)CC3(C(=O)NC(=O)NC3=O)[C@H]2[C@H](C)O1 [Compound 3, (2R,4S,4aS)-11-fluoro-2,4-dimethyl-8-((R)-5-methyl-2-oxothiazolin-3-yl)-1,2,4,4a-tetrahydro-2′H,6H-spiro[isoxazole[4,5-g][1,4]oxazine[4,3-a]quinoline-5,5′-pyrimidine]-2′,4′,6′(1′H,3′H)-trione]	0.03 to 0.25 (≈ 0.0596 to 0.497 µM)	0.03 to 0.06 (≈ 0.0596 to 0.119 µM)	0.03 to 0.125 (≈ 0.0596 to 0.248 µM)	0.03 to 0.06 (≈ 0.0596 to 0.119 µM)	< 0.03	0.03 (≈ 0.0596 µM)				12034 ± 2835	2188 ± 223	4.85 ± 0.99	2.70 ± 0.143	35 ± 22.9	
CC[C@@H]1CN(c2noc3c(F)c4c(cc23)CC2(C(=O)NC(=O)NC2=O)[C@H]2[C@H](C)O[C@H](C)CN42)C(=O)S1 [Compound 16, (2R,4S,4aS)-8-((R)-5-ethyl-2-oxothiazol-3-yl)-11-fluoro-2,4-dimethyl-1,2,4,4a-tetrahydro-2′H,6H-spiro[isoxazole[4,5-g][1,4]oxazine[4,3-a]quinoline-5,5′-pyrimidine]-2′,4′,6′(1′H,3′H)-trione]	0.03 to 0.06 (≈ 0.058 to 0.116 µM)	< 0.03	0.03 to 0.06 (≈ 0.058 to 0.116 µM)	< 0.03	< 0.03	0.03 to 0.06 (≈ 0.058 to 0.116 µM)	about 8 times	~11	~13	8057 ± 1469	2376 ± 411	3.45 ± 0.788	1.59 ± 0.495		Tmax ([8]; plasma): 70.2 ± 45.8 min
C[C@@H]1CN2c3c(cc4c(N5C(=O)OC[C@@H]5C)noc4c3F)CC3(C(=O)NC(=O)NC3=O)[C@H]2[C@H](C)O1 [AZD0914, reference compound]	0.06 to 1 (≈ 0.123 to 2.05 µM)	0.06 to 0.25 (≈ 0.123 to 0.513 µM)	0.125 to 0.25 (≈ 0.256 to 0.513 µM)	0.06 to 0.25 (≈ 0.123 to 0.513 µM)	0.25 to 0.5 (≈ 0.513 to 1.03 µM)	0.25 to 1 (≈ 0.513 to 2.05 µM)								35 ± 22.9	MIC [9]: 0.125 µg/mL (≈ 0.256 µM); AUC(0-t) ([8]; female, CD-1, mouse, plasma): 748 ± 215 ng·h/mL; half-life ([8]; female, CD-1, mouse, plasma): 205 ± 56.6 min; Cmax ([8]; female, CD-1, mouse, plasma, read-out: Cmax): 183 ± 134 ng/mL; MRT ([8]; female, CD-1, mouse, plasma, read-out: MRT): 7.06 ± 2.92 h; ED50 [10]: 11.5 mg/kg; ED50 ([10]; po, read-out: ED50 95% confidence limit): 7.28 to 25.8 mg/kg
CC[C@H]1CN(c2noc3c(F)c4c(cc23)CC2(C(=O)NC(=O)NC2=O)[C@H]2[C@H](C)O[C@H](C)CN42)C(=O)S1 [Compound 19, (2R,4S,4aS)-8-((S)-5-ethyl-2-oxothiazol-3-yl)-11-fluoro-2,4-dimethyl-1,2,4,4a-tetrahydro-2′H,6H-spiro[isoxazole[4,5-g][1,4]oxazine[4,3-a]quinoline-5,5′-pyrimidine]-2′,4′,6′(1′H,3′H)-trione]	< 0.03	< 0.03	< 0.03	0.03 to 0.06 (≈ 0.058 to 0.116 µM)	< 0.03	0.03 to 0.06 (≈ 0.058 to 0.116 µM)	about 8 times								
